Key:
[1] = target: T1, Monocarboxylate transporter 1 (Rattus norvegicus) (UniProt P53987); assay: (§1) TP_TRANSPORTER: inhibition of lactate uptake in Xenopus laevis oocytes; assay type: functional, cell-based; design: concentration or dose not given beside the values; settings: Oocyte
T1 sequence (whole entry): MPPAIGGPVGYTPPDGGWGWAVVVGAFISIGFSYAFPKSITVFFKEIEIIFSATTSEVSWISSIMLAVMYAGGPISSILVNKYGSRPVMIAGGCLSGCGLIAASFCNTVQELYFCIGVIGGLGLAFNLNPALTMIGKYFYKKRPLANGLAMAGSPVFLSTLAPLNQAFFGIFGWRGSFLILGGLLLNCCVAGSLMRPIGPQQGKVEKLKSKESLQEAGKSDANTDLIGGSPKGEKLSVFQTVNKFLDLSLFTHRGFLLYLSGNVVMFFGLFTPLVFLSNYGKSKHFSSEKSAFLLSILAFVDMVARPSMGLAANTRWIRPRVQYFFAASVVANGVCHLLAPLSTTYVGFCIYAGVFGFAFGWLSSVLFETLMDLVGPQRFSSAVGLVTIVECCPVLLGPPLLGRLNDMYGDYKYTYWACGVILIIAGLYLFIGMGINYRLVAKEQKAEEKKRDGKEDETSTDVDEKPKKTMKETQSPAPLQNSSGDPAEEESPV

[2] = target: T2, Monocarboxylate transporter 2 (Rattus norvegicus) (UniProt Q63344); assay: as §1; assay type: functional, cell-based; design: concentration or dose not given beside the values; settings: Oocyte
T2 sequence (whole entry): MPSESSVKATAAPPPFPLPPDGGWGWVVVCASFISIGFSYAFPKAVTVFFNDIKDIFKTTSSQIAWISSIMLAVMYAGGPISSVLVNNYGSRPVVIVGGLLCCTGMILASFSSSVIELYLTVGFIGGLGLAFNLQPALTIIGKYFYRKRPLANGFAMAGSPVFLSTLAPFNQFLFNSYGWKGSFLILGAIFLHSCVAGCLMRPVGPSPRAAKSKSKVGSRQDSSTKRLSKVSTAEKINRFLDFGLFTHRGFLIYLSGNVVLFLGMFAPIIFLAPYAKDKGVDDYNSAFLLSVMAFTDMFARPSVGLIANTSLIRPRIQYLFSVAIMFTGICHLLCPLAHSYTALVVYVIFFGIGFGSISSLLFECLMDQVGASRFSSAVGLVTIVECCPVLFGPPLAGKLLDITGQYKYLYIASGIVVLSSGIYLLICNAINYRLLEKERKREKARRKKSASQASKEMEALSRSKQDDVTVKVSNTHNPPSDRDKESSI

[3] = target: T3, Monocarboxylate transporter 2 (Rattus norvegicus, UniProt Q63344); assay: as §1; assay type: functional, cell-based, Oocyte
T3 sequence (Q63344 whole entry): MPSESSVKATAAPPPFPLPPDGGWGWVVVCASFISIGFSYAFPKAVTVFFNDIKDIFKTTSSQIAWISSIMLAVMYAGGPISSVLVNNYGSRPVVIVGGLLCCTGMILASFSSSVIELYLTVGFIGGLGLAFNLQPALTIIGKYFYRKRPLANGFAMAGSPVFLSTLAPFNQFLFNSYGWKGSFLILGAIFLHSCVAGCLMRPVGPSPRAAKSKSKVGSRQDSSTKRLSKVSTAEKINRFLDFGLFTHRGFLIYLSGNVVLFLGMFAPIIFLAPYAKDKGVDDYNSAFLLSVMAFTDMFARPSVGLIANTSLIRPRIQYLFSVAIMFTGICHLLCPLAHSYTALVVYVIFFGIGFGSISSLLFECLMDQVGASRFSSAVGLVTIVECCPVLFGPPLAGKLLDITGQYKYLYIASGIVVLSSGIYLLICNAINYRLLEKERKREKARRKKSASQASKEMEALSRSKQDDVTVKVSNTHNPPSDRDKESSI

[4] = target: T4, Monocarboxylate transporter 1 (Rattus norvegicus, UniProt P53987); assay: as §1; assay type: functional, cell-based, Oocyte
T4 sequence (P53987 whole entry): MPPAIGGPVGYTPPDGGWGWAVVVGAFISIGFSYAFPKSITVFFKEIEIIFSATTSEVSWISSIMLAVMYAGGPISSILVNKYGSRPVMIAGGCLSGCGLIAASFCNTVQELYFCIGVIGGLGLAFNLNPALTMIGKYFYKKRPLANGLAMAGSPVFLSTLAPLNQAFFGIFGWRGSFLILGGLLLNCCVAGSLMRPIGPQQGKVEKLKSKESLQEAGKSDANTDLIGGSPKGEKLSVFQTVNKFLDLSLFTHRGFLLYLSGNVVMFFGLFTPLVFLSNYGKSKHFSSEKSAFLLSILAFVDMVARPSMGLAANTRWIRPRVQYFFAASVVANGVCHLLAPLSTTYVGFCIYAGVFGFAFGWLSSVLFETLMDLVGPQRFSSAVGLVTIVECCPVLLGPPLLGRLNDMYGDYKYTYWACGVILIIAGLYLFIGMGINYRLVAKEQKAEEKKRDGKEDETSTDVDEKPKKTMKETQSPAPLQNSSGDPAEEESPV

[5] = target: Monocarboxylate transporter 2 (Rattus norvegicus) (UniProt Q63344); assay: as §1; assay type: functional, cell-based; design: concentration or dose not given beside the values; settings: Oocyte; remark: listed apart in the source
[6] = target: Monocarboxylate transporter 1 (Rattus norvegicus) (UniProt P53987); assay: as §1; assay type: functional, cell-based; design: concentration or dose not given beside the values; settings: Oocyte; remark: listed apart in the source
[7] = compound: C[C@@H](O)C(=O)O; assay: as §1; assay type: functional, cell-based; settings: Oocyte

Molecule	Activity [1]	Activity [2]	other results
CC(=O)Oc1ccccc1O	92%	105%	–
CCCCCC#CCC#CCC#CCC#CCCCC(=O)O	117%	125%	–
CCCN(CCC)S(=O)(=O)c1ccc(C(=O)O)cc1	110%	88%	–
O=C(O)C(O)c1ccccc1 (stereo not drawn)	97%	117%	–
O=C(O)CC12CC3CC(CC(C3)C1)C2	96%	113%	–
O=C(O)c1c2ccccc2cc2ccccc12	102%	104%	–
O=C(O)c1cc([N+](=O)[O-])ccc1NCCCc1ccccc1	54%	25%	–
O=C(O)c1ccc(-c2ccccc2)cc1	88%	74%	–
O=C(O)c1cccnc1Nc1cccc(C(F)(F)F)c1	36%	14%	–
O=[N+]([O-])c1ccc(/C=C/c2ccc([N+](=O)[O-])cc2S(=O)(=O)O)c(S(=O)(=O)O)c1	112%	119%	–
c1ccc(CSSCc2ccccc2)cc1	99%	44%	–
CC(O)CC(=O)O (racemic) [3-HYDROXYBUTYRIC ACID, (+/-)-]	–	–	Ki [3]: 1200 µM
CC(C)CC(=O)C(=O)O [2-Oxoisohexanoate]	–	–	Ki [3]: 100 µM
CC(C)C(=O)C(=O)O [2-Oxoisovalerate]	–	–	Ki [3]: 300 µM
CC(=O)CC(=O)O [ACETOACETIC ACID]	–	–	Ki [3]: 800 µM
CCc1oc2ccccc2c1C(=O)c1cc(Br)c(O)c(Br)c1 [BENZBROMARONE]	19%	12%	IC50 [4]: 22 µM; IC50 [3]: 9 µM
O=C(CCc1ccc(O)cc1)c1c(O)cc(O)cc1O [PHLORETIN]	14%	3%	IC50 [4]: 28 µM; IC50 [3]: 14 µM
CC(=O)C(=O)O [PYRUVATE]	–	–	Ki [3]: 80 µM
O=c1c(O)c(-c2ccc(O)c(O)c2)oc2cc(O)cc(O)c12 [QUERCETIN]	11%	17%	IC50 [4]: 14 µM; IC50 [3]: 5 µM
N#C/C(=C\c1ccc(O)cc1)C(=O)O [alpha-CYANO-4-HYDROXYCINNAMIC ACID]	74.4%	34%	IC50 [4]: 425 µM; IC50 [3]: 24 µM
MERCURIC CHLORIDE	–	–	Activity [5]: 54%; Activity [6]: 37%
p-Chloromercuribenzenesulfonate	–	–	Activity [5]: 118%; Activity [6]: 9%
Monocarboxylate transporter 2 (Rattus norvegicus), Q63344 (protein) MPSESSVKATAAPPPFPLPPDGGWGWVVVCASFISIGFSYAFPKAVTVFFNDIKDIFKTTSSQIAWISSIMLAVMYAGGPISSVLVNNYGSRPVVIVGGLLCCTGMILASFSSSVIELYLTVGFIGGLGLAFNLQPALTIIGKYFYRKRPLANGFAMAGSPVFLSTLAPFNQFLFNSYGWKGSFLILGAIFLHSCVAGCLMRPVGPSPRAAKSKSKVGSRQDSSTKRLSKVSTAEKINRFLDFGLFTHRGFLIYLSGNVVLFLGMFAPIIFLAPYAKDKGVDDYNSAFLLSVMAFTDMFARPSVGLIANTSLIRPRIQYLFSVAIMFTGICHLLCPLAHSYTALVVYVIFFGIGFGSISSLLFECLMDQVGASRFSSAVGLVTIVECCPVLFGPPLAGKLLDITGQYKYLYIASGIVVLSSGIYLLICNAINYRLLEKERKREKARRKKSASQASKEMEALSRSKQDDVTVKVSNTHNPPSDRDKESSI	–	–	Km [7]: 740 µM
